Test results published in PMC8311653, “Design, Synthesis, In Vitro and In Vivo Characterization of Selective NKCC1 Inhibitors for the Treatment of Core Symptoms in Down Syndrome” (Journal of Medicinal Chemistry, 2021).
≈ marks a conversion by molar mass, not a printed value.

Assays:
NKCC1 = target: T1, NKCC1 (Mus musculus, UniProt P55012); experiment: Ca2+ influx assay in immature primary neuronal cultures (indirect measure of NKCC1 inhibition); format: cell-based; conditions: cultured neurons, 3 DIV
T1 construct: primary neuronal cultures of dissociated hippocampal neurons were prepared from E18 C57BL/6J mice; endogenous in cells; host or cells: primary hippocampal neurons from E18 C57BL/6J mice, 3 DIV
T1 sequence (P55012 1-1205): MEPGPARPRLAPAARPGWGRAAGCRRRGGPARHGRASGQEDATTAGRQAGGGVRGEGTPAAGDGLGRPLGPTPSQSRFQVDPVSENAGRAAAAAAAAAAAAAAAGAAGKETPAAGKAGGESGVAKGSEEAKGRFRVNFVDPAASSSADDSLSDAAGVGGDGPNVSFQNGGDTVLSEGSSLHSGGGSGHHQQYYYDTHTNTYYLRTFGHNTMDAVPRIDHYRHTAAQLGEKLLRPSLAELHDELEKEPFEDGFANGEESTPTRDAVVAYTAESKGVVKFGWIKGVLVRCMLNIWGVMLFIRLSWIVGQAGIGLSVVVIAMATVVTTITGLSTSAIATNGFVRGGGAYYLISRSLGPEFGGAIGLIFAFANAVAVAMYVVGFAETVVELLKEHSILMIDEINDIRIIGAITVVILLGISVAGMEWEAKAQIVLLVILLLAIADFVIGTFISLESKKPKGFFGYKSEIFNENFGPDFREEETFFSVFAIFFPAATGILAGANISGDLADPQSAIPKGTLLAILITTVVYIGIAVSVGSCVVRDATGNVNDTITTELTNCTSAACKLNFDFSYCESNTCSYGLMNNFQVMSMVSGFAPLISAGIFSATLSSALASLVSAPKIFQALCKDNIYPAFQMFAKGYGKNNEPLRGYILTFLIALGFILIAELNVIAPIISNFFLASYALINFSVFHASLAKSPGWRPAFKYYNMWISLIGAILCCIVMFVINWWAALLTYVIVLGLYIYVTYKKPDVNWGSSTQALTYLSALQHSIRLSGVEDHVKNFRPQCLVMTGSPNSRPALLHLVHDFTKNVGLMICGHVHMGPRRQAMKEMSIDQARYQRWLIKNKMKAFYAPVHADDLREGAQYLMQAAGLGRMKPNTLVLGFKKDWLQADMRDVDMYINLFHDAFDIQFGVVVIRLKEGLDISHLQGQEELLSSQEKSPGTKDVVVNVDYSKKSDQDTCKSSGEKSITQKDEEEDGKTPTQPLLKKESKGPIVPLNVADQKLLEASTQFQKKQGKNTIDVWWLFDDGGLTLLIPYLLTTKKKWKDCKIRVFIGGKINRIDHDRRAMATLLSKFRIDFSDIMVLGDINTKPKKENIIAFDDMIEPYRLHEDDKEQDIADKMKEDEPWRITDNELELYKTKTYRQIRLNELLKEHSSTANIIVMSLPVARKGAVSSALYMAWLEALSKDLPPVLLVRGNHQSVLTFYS
Method: To perform the Ca^2+-influx assay, primary neuronal cultures of dissociated hippocampal neurons were prepared from E18 C57BL/6J mice (Charles River) as previously described[56] and plated in 96-well black-walled, clear-bottomed plates coated with poly-L-lysine (Sigma; 0.1 mg/mL in 100 mM borate buffer, pH 8.5) at a density of 30,000 cells per well. Neurons were maintained in neurobasal medium supplemented with 2% B-27 supplement, 0.5 mM glutamine, 50 U/mL of penicillin, and 50 μg/mL of streptomycin (all from Gibco). The cells were incubated at 37 °C and 5% CO2 until DIV 3 for the Ca^2+ influx assay.
At 3 DIVs, neurons were loaded with 2.5 μM of the Ca^2+-sensitive day Fluo4-AM (Invitrogen) in extracellular solution (145 mM NaCl, 5 mM KCl, 10 mM HEPES, 5.55 mM glucose, 1 mM MgCl2, and 2 mM CaCl2, pH 7.4). After 15 min, cells were washed twice with extracellular solutions and treated with bumetanide (as a positive control), DMSO (as a negative control), or each of our compounds at 10 μM or 100 μM, in extracellular solution for 15 min. Plates were then loaded onto a Spark (Tecan) multiplate reader equipped with an automatic liquid injector system, and Fluo4 fluorescence was recorded with excitation at 485 nm and emission at 535 nm. For each well, fluorescence was first recorded for 20 s of the baseline and for 20 s after delivery of GABA (100 μM). To evaluate neuronal viability, fluorescence was recorded for an additional 20 s after delivery of a depolarizing KCl stimulus (90 mM final concentration in wells). To represent the fluorescent traces in time, we normalized the fluorescence value for each time point to the average of the fluorescence value for the first 20 s of the baseline (ΔF/F0). To quantify the average effects as represented by the bar plots, we measured the maximum peak increase in ΔF/F0 fluorescence upon GABA application normalized over the maximum peak increase in ΔF/F0 fluorescence upon KCl application. We then presented in the figures all the data as a percentage of the fluorescence increase versus the value of the control DMSO.

[1] = In vitro mouse plasma stability; format: in vitro ADME; conditions: mouse plasma at 37 °C; incubated at 5 μM (final DMSO 0.1%); read-out: t1/2 plasma
[2] = In vitro metabolic stability in mouse liver microsomes; conditions: tissue homogenate, pH 7.4
Method: 1. Aqueous kinetic solubility. […]
3. In vitro mouse microsomial stability. […]
microsomes (Sekisui Xenotech, LCC), 0.1M Tris-HCl buffer (pH 7.4), and 10% DMSO. The final […]
After pre-incubation, the cofactors (NADPH, G6P, G6PDH, MgCl2 pre-dissolved in 0.1M Tris-HCl) were added to the incubation mixture and the incubation was continued at 37 °C for 1h. At each time point (0, 5, 15, 30, 60 min), 30µL of incubation mixture was diluted with 200 µL cold acetonitile spiked with 200 nM of warfarin as internal standard, followed by centrifugation at 3500 g for 30 min. The supernatant was further diluted with H2O (1:1) for analysis.
An aliquot of 200 µl of the supernatant was removed, and the concentration of the test compound was […]
quantified by LC-MS/MS. The percentage of the test compound remaining at each time point relative […]
to t=0 was calculated. The half-lives (t½) were determined by a one-phase decay equation using a […]
non-linear regression of compound concentration vs time.

[3] = Aqueous kinetic solubility in PBS pH 7.4; format: physicochemical; conditions: phosphate buffered saline (PBS); aqueous kinetic solubility from 10 mM DMSO solution in PBS pH 7.4; target concentration 250 μM (final DMSO 2.5%)
Method: 1. Aqueous kinetic solubility.
30 µL aliquots of 10 mM DMSO stock solution of the test compound were incubated in Phosphate
Buffered Saline (PBS) at pH 7.4 at 25°C for 24h. After centrifugation the dissolved compound in the
supernatant was quantified by LC-MS/MS.
Aqueous kinetic solubility was determined by UV quantification at
215 nm. […]

SMILES | inhibition at 10 µM (NKCC1) | inhibition at 100 µM (NKCC1; 100 μM) | half-life at 5 μM [1] | half-life at 5 μM [2] | solubility at 24 h [3] | Inhibition 100 μM Ca2+ influx (%) (NKCC1; 100 μM)
CNS(=O)(=O)c1cc(C(=O)O)ccc1NCCCCCCCC(F)(F)F [Compound 32, 3-(-N,N-Methylsulfamoyl)-4-(8,8,8-trifluorooctylamino)benzoic Acid] | 9.3 ± 1.9% | 40.4 ± 4.8% | > 2 h | > 1 h | 242 µM (≈ 95.9 µg/mL) | 
O=C(O)c1ccc(NCCCCCCCC(F)(F)F)c(S(=O)(=O)N2CCCC2)c1 [Compound 33, 3-Pyrrolidin-1-ylsulfonyl-4-(8,8,8-trifluorooctylamino)benzoic Acid] | 31.7 ± 4.1% | 50.9 ± 6.7% | > 2 h | > 1 h | 66 µM (≈ 28.8 µg/mL) | 
O=C(O)c1ccc(NCCCCCCCC(F)(F)F)c(S(=O)(=O)N2CCCCC2)c1 [Compound 34, 3-(1-Piperidylsulfonyl)-4-(8,8,8-trifluorooctylamino)benzoic Acid] | 49.2 ± 4.5% |  | > 2 h | > 1 h | 13 µM (≈ 5.86 µg/mL) | 
O=C(O)c1ccc(NCCCCCCCC(F)(F)F)c(S(=O)(=O)N2CCOCC2)c1 [Compound 35, 3-Morpholinosulfonyl-4-(8,8,8-trifluorooctylamino)benzoic Acid] | 16.5 ± 2.7% | 67.8 ± 2.8% | > 2 h | > 1 h | 244 µM (≈ 110 µg/mL) | 67.7 ± 2.8%
O=C(O)c1ccc(NCCCCCCCC(F)(F)F)c(S(=O)(=O)NC2CCCC2)c1 [Compound 36, 3-(-N-Cyclopentylsulfamoyl)-4-(8,8,8-trifluorooctylamino)benzoic Acid] | 45.3 ± 5.3% |  | > 2 h | > 1 h | 223 µM (≈ 100 µg/mL) | 
O=C(O)c1ccc(NCCCCCCCC(F)(F)F)c(S(=O)(=O)NC2CCCCC2)c1 [Compound 37, 3-(-N-Cyclohexylsulfamoyl)-4-(8,8,8-trifluorooctylamino)benzoic Acid] | 49.5 ± 4.5% |  | > 2 h | > 1 h | 9 µM (≈ 4.18 µg/mL) | 
O=C(O)c1ccc(NCCCCCCCC(F)(F)F)c(S(=O)(=O)NC2CCOCC2)c1 [Compound 38, 3-(N-(Tetrahydro-2H-pyran-4-yl)sulfamoyl)-4-((8,8,8-trifluorooctyl)amino)benzoic Acid] | 7.1 ± 2.2% | 36.2 ± 3.4% | > 2 h | > 1 h | 244 µM (≈ 114 µg/mL) | 
CN(C)S(=O)(=O)c1cc(C(=O)O)c(Cl)cc1NCCCCCCCC(F)(F)F [Compound 39, 2-Chloro-5-(N,N-dimethylsulfamoyl)-4-((8,8,8-trifluorooctyl)amino)benzoic Acid] | 19.4 ± 2.8% | 59.6 ± 3.1% | > 2 h | > 1 h | 241 µM (≈ 107 µg/mL) | 
COc1cc(NCCCCCCCC(F)(F)F)c(S(=O)(=O)N(C)C)cc1C(=O)O [Compound 41, 5-(N,N-Dimethylsulfamoyl)-2-methoxy-4-((8,8,8-trifluorooctyl)amino)benzoic Acid] | 14.2 ± 2% | 45.7 ± 4.5% | > 2 h | > 1 h | 188 µM (≈ 82.8 µg/mL) | 
CCOc1cc(NCCCCCCCC(F)(F)F)c(S(=O)(=O)N(C)C)cc1C(=O)O [Compound 42, 5-(N,N-Dimethylsulfamoyl)-2-ethoxy-4-((8,8,8-trifluorooctyl)amino)benzoic Acid] | 13.4 ± 1.1% | 46.6 ± 3.8% | > 2 h | > 1 h | 43 µM (≈ 19.5 µg/mL) | 
CN(C)S(=O)(=O)c1cc(C(=O)O)c(OC2CCCC2)cc1NCCCCCCCC(F)(F)F [Compound 43, 2-(Cyclopentyloxy)-5-(N,N-dimethylsulfamoyl)-4-((8,8,8-trifluorooctyl)amino)benzoic Acid] | 27.4 ± 7% |  | > 2 h | 0.55 h | 11 µM (≈ 5.44 µg/mL) | 
